13 molecules from ChEMBL document CHEMBL1921790, “Synthesis and antimicrobial activity of brominated resorcinol dimers” (Bioorg Med Chem Lett, 2011) can be followed below.

By MIC is commonly meant the smallest concentration in the dilution series that meets the test's criterion for growth inhibition. Higher therefore signals weaker potency. Broadly, the IC50 is the midpoint of a concentration-inhibition curve. A high value points to weaker potency in that assay.

In brackets after ≈: the same amount, converted by molar mass.

The test system of one experiment is Proteus vulgaris. The experiment is described as follows: Antibacterial activity against Proteus vulgaris ATCC 3851 after 24 hrs by two fold serial dilution method. Type of experiment: functional. To be noted: ATCC 3851, 24 h.
The test system of a further experiment is Escherichia coli. The experiment is described as follows: Antibacterial activity against Escherichia coli ATCC 25922 after 24 hrs by two fold serial dilution method. The experiment is classed as functional. To be noted: ATCC 25922, 24 h.
The subject of a further experiment is Bacillus subtilis. The experiment is described as follows: Antibacterial activity against Bacillus subtilis ATCC 6633 after 24 hrs by two fold serial dilution method. Type of experiment: functional. To be noted: ATCC 6633, 24 h.
For the next experiment, the system named is Staphylococcus aureus. The experiment is described as follows: Antibacterial activity against Staphylococcus aureus ATCC 6538p after 24 hrs by two fold serial dilution method. Type of experiment: functional.
In another experiment the test system is Trichophyton rubrum. In words: Antifungal activity against Trichophyton rubrum IFO 9185 after 48 to 72 hrs by two fold serial dilution method. Type of experiment: functional.
The test system of the next experiment is Aspergillus fumigatus. In words: Antifungal activity against Aspergillus fumigatus HIC 6094 after 48 to 72 hrs by two fold serial dilution method. The experiment is classed as functional.
Experiment [1] has as its system Trichophyton mentagrophytes. The experiment is described as follows: Antifungal activity against Trichophyton mentagrophytes IFO 40996 after 48 to 72 hrs by two fold serial dilution method. Type of experiment: functional.
The next experiment addresses Isocitrate lyase (Candida albicans, UniProt Q9P8Q7). The experiment is described as follows: Inhibition of Candida albicans isocitrate lyase after 30 mins.
In the next experiment the test system is Micrococcus luteus. The experiment is described as follows: Antibacterial activity against Micrococcus luteus IFC 12708 after 24 hrs by two fold serial dilution method. Conditions: IFC 12708, 24 h. The experiment is classed as functional.
The next experiment relates to Salmonella typhimurium. The experiment is described as follows: Antibacterial activity against Salmonella Typhimurium ATCC 14028 after 24 hrs by two fold serial dilution method. Conditions: Salmonella enterica, ATCC 14028, 24 h. Type of experiment: functional, Salmonella enterica subsp. enterica serovar Typhimurium.
Another experiment relates to Candida albicans. In words: Antifungal activity against Candida albicans ATCC 10231 after 24 to 72 hrs by two fold serial dilution method. Type of experiment: functional.

Isocitrate lyase, sequence (Q9P8Q7 whole entry): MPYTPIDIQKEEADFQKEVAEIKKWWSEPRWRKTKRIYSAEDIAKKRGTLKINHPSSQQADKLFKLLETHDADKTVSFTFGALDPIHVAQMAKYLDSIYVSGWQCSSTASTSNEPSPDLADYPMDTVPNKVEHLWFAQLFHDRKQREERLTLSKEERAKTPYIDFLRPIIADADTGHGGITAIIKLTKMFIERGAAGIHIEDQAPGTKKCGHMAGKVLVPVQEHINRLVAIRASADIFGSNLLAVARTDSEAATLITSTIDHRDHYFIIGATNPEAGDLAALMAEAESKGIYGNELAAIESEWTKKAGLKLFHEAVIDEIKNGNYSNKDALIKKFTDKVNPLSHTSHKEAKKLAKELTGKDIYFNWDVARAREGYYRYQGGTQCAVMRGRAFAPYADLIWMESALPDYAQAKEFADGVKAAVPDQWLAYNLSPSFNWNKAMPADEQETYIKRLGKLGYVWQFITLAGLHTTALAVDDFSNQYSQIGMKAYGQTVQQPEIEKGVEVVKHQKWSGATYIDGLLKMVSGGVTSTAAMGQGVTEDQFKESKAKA

Regarding `CCCCCC(c1cc(Br)c(O)cc1O)c1cc(Br)c(O)cc1O`, the MIC in the experiment on Proteus vulgaris was found to be 1.56 µg/mL (≈ 3.39 µM); with Escherichia coli it was 50 µg/mL (≈ 109 µM); with Bacillus subtilis, 1.56 µg/mL (≈ 3.39 µM); in the experiment with Staphylococcus aureus, 3.12 µg/mL (≈ 6.78 µM); against Trichophyton rubrum it was 12.5 µg/mL (≈ 27.2 µM); against Aspergillus fumigatus it was 12.5 µg/mL (≈ 27.2 µM). Moreover, the minimal inhibitory concentration (MIC) in experiment [1] worked out at 25 µg/mL (≈ 54.3 µM); in the experiment with Micrococcus luteus, 1.56 µg/mL (≈ 3.39 µM); in the experiment with Salmonella typhimurium it was 3.12 µg/mL (≈ 6.78 µM); in the experiment on Candida albicans, 25 µg/mL (≈ 54.3 µM). Moreover, 28 µM corresponded to half-maximal inhibition against Isocitrate lyase (IC50).
For the molecule `Oc1ccc(C(c2cc(Br)c(O)cc2O)c2cc(Br)c(O)cc2O)cc1`, the minimum inhibitory concentration (MIC) in the experiment with Proteus vulgaris was 0.78 µg/mL (≈ 1.62 µM); with Escherichia coli, greater than 100 µg/mL; in the experiment on Bacillus subtilis, 0.78 µg/mL (≈ 1.62 µM); against Staphylococcus aureus, 0.78 µg/mL (≈ 1.62 µM); in the experiment with Trichophyton rubrum, 100 µg/mL (≈ 207 µM); against Aspergillus fumigatus it was 50 µg/mL (≈ 104 µM). The minimal inhibitory concentration (MIC) in experiment [1] was found to be 100 µg/mL (≈ 207 µM); with Micrococcus luteus, 0.78 µg/mL (≈ 1.62 µM); in the experiment with Salmonella typhimurium it was 1.56 µg/mL (≈ 3.24 µM); in the experiment with Candida albicans it was 50 µg/mL (≈ 104 µM). For the same molecule, it took 25.9 µM to reach half-maximal inhibition against Isocitrate lyase (IC50).
With `Oc1cc(O)c(C(c2cc(Br)c(O)cc2O)c2c(Cl)cccc2Cl)cc1Br`, the MIC against Proteus vulgaris is 1.56 µg/mL (≈ 2.92 µM); in the experiment with Escherichia coli it was 100 µg/mL (≈ 187 µM); against Bacillus subtilis, 1.56 µg/mL (≈ 2.92 µM); against Staphylococcus aureus it was 6.25 µg/mL (≈ 11.7 µM); in the experiment on Trichophyton rubrum, greater than 100 µg/mL; with Aspergillus fumigatus, 100 µg/mL (≈ 187 µM). In addition, the MIC in experiment [1] came to 100 µg/mL (≈ 187 µM); in the experiment with Micrococcus luteus, 1.56 µg/mL (≈ 2.92 µM); against Salmonella typhimurium, 6.25 µg/mL (≈ 11.7 µM); in the experiment with Candida albicans it was 100 µg/mL (≈ 187 µM). On Isocitrate lyase, this molecule showed an IC50 of 17.9 µM.
As for `O=[N+]([O-])c1cccc(C(c2cc(Br)c(O)cc2O)c2cc(Br)c(O)cc2O)c1`, the MIC is 1.56 µg/mL (≈ 3.05 µM) against Proteus vulgaris; greater than 100 µg/mL with Escherichia coli; 1.56 µg/mL (≈ 3.05 µM) with Bacillus subtilis; 3.12 µg/mL (≈ 6.1 µM) in the experiment with Staphylococcus aureus; 100 µg/mL (≈ 196 µM) with Trichophyton rubrum; 100 µg/mL (≈ 196 µM) with Aspergillus fumigatus. Further, the MIC in [1] was found to be 100 µg/mL (≈ 196 µM); in the experiment with Micrococcus luteus it was 1.56 µg/mL (≈ 3.05 µM); in the experiment on Salmonella typhimurium, 3.12 µg/mL (≈ 6.1 µM); against Candida albicans, 50 µg/mL (≈ 97.8 µM). On Isocitrate lyase, this molecule yielded an IC50 of 26.8 µM.
Take `O=[N+]([O-])c1ccc(C(c2cc(Br)c(O)cc2O)c2cc(Br)c(O)cc2O)cc1`: the MIC against Proteus vulgaris is 25 µg/mL (≈ 48.9 µM); against Escherichia coli, greater than 100 µg/mL; in the experiment on Bacillus subtilis, 12.5 µg/mL (≈ 24.5 µM); against Staphylococcus aureus it was 25 µg/mL (≈ 48.9 µM); in the experiment on Trichophyton rubrum, greater than 100 µg/mL; against Aspergillus fumigatus it was greater than 100 µg/mL. The MIC in [1] is greater than 100 µg/mL; against Micrococcus luteus, 12.5 µg/mL (≈ 24.5 µM); with Salmonella typhimurium, 25 µg/mL (≈ 48.9 µM); in the experiment on Candida albicans, greater than 100 µg/mL. The same molecule displayed a 50% inhibitory concentration (IC50) at Isocitrate lyase of 20.7 µM.
As to `CCCCCC(c1ccc(O)cc1O)c1cc(Br)c(O)cc1O` (configuration not stated), the minimal inhibitory concentration (MIC) in the experiment with Proteus vulgaris came out at 3.12 µg/mL (≈ 8.18 µM); with Escherichia coli, 100 µg/mL (≈ 262 µM); in the experiment with Bacillus subtilis it was 3.12 µg/mL (≈ 8.18 µM); with Staphylococcus aureus, 6.25 µg/mL (≈ 16.4 µM); in the experiment with Trichophyton rubrum it was 50 µg/mL (≈ 131 µM); against Aspergillus fumigatus it was 50 µg/mL (≈ 131 µM). Also, the minimal inhibitory concentration (MIC) stood at 50 µg/mL (≈ 131 µM) in [1], 3.12 µg/mL (≈ 8.18 µM) with Micrococcus luteus, 3.12 µg/mL (≈ 8.18 µM) in the experiment on Salmonella typhimurium and 50 µg/mL (≈ 131 µM) in the experiment on Candida albicans. Also, at Isocitrate lyase, the IC50 was determined as 46.6 µM.
As for `Oc1ccc(C(c2ccc(O)cc2O)c2cc(Br)c(O)cc2O)cc1` (configuration not stated), the minimal inhibitory concentration (MIC) against Proteus vulgaris is 3.12 µg/mL (≈ 7.74 µM); against Escherichia coli it was greater than 100 µg/mL; with Bacillus subtilis, 3.12 µg/mL (≈ 7.74 µM); in the experiment on Staphylococcus aureus, 6.25 µg/mL (≈ 15.5 µM); with Trichophyton rubrum, greater than 100 µg/mL; with Aspergillus fumigatus, greater than 100 µg/mL. Further, the MIC in experiment [1] was greater than 100 µg/mL; in the experiment on Micrococcus luteus it was 3.12 µg/mL (≈ 7.74 µM); against Salmonella typhimurium, 6.25 µg/mL (≈ 15.5 µM); against Candida albicans, greater than 100 µg/mL. Also, 90.5 µM corresponded to half-maximal inhibition at Isocitrate lyase (IC50).
For `Oc1ccc(C(c2cc(Br)c(O)cc2O)c2c(Cl)cccc2Cl)c(O)c1` (configuration not stated), the minimal inhibitory concentration (MIC) in the experiment on Proteus vulgaris was 12.5 µg/mL (≈ 27.4 µM); in the experiment with Escherichia coli, greater than 100 µg/mL; with Bacillus subtilis, 6.25 µg/mL (≈ 13.7 µM); in the experiment with Staphylococcus aureus it was 12.5 µg/mL (≈ 27.4 µM); against Trichophyton rubrum, greater than 100 µg/mL; in the experiment with Aspergillus fumigatus, greater than 100 µg/mL. Also, the MIC is greater than 100 µg/mL in experiment [1], 12.5 µg/mL (≈ 27.4 µM) in the experiment with Micrococcus luteus, 12.5 µg/mL (≈ 27.4 µM) against Salmonella typhimurium and greater than 100 µg/mL with Candida albicans. Besides, at Isocitrate lyase, half-maximal inhibition (IC50) was put at 78.7 µM.
Turning to `O=[N+]([O-])c1cccc(C(c2ccc(O)cc2O)c2cc(Br)c(O)cc2O)c1` (configuration not stated), the minimum inhibitory concentration (MIC) is 6.25 µg/mL (≈ 14.5 µM) against Proteus vulgaris; greater than 100 µg/mL in the experiment with Escherichia coli; 6.25 µg/mL (≈ 14.5 µM) against Bacillus subtilis; 12.5 µg/mL (≈ 28.9 µM) in the experiment with Staphylococcus aureus; greater than 100 µg/mL against Trichophyton rubrum; greater than 100 µg/mL with Aspergillus fumigatus. Moreover, the MIC in experiment [1] was greater than 100 µg/mL; against Micrococcus luteus, 12.5 µg/mL (≈ 28.9 µM); in the experiment on Salmonella typhimurium, 6.25 µg/mL (≈ 14.5 µM); against Candida albicans, 100 µg/mL (≈ 231 µM). Also, the IC50 against Isocitrate lyase turned out to be 69.9 µM.
As for `O=[N+]([O-])c1ccc(C(c2ccc(O)cc2O)c2cc(Br)c(O)cc2O)cc1` (configuration not stated), the MIC was 100 µg/mL (≈ 231 µM) against Proteus vulgaris; greater than 100 µg/mL in the experiment on Escherichia coli; 50 µg/mL (≈ 116 µM) in the experiment with Bacillus subtilis; 100 µg/mL (≈ 231 µM) in the experiment with Staphylococcus aureus; greater than 100 µg/mL in the experiment with Trichophyton rubrum; greater than 100 µg/mL against Aspergillus fumigatus. Also, the MIC was greater than 100 µg/mL in experiment [1], 50 µg/mL (≈ 116 µM) in the experiment on Micrococcus luteus, 100 µg/mL (≈ 231 µM) against Salmonella typhimurium and greater than 100 µg/mL in the experiment with Candida albicans. In addition, 41.2 µM corresponded to half-maximal inhibition against Isocitrate lyase (IC50).
In the case of `CCCCCC(c1ccc(O)cc1O)c1ccc(O)cc1O`, the MIC was 12.5 µg/mL (≈ 41.3 µM) with Proteus vulgaris; 100 µg/mL (≈ 331 µM) with Escherichia coli; 6.25 µg/mL (≈ 20.7 µM) in the experiment on Bacillus subtilis; 12.5 µg/mL (≈ 41.3 µM) with Staphylococcus aureus; greater than 100 µg/mL in the experiment with Trichophyton rubrum; greater than 100 µg/mL in the experiment with Aspergillus fumigatus. In addition, the MIC in experiment [1] was greater than 100 µg/mL; against Micrococcus luteus it was 12.5 µg/mL (≈ 41.3 µM); with Salmonella typhimurium, 12.5 µg/mL (≈ 41.3 µM); in the experiment with Candida albicans, greater than 100 µg/mL. Also, the half-maximal inhibitory concentration (IC50) against Isocitrate lyase is 167 µM.
At Isocitrate lyase, `O=C(O)CC[N+](=O)[O-]` displayed an IC50 of 6 µM.
As for `CC1(C)S[C@@H]2[C@H](NC(=O)[C@H](N)c3ccccc3)C(=O)N2[C@H]1C(=O)O` [AMPICILLIN], the MIC is 0.78 µg/mL (≈ 2.23 µM) in the experiment on Proteus vulgaris; 6.25 µg/mL (≈ 17.9 µM) in the experiment on Escherichia coli; 0.39 µg/mL (≈ 1.12 µM) with Bacillus subtilis; 0.39 µg/mL (≈ 1.12 µM) in the experiment with Staphylococcus aureus; 1.56 µg/mL (≈ 4.46 µM) with Trichophyton rubrum; 1.56 µg/mL (≈ 4.46 µM) with Aspergillus fumigatus. Moreover, the MIC in [1] is 1.56 µg/mL (≈ 4.46 µM); with Micrococcus luteus, 1.56 µg/mL (≈ 4.46 µM); in the experiment with Salmonella typhimurium, 0.78 µg/mL (≈ 2.23 µM); against Candida albicans, 0.78 µg/mL (≈ 2.23 µM).
